Test [1] has as its system LL2 cells. The test can be described thus: Resazurin viability assay of LL2 cells (Example 4). It is filed as cell-based, mouse. How it is done: (§1) 4T1 cells (ATCC, CRL-2539) were cultured in RPMI-1640 (Sigma, Cat. #R8758) supplemented with 10% fetal bovine serum (FBS), L-glutamine (4 mM), streptomycin (5 μg/ml) and penicillin (5 U/ml). […] Lewis lung carcinoma cells LL/2 (LLC1) (ATCC, CRL-1642™) were cultured in Dulbecco's Modified Eagle's Medium ATCC® 30-2002™ (4 mM L-glutamine, 4500 mg/L glucose, 1 mM sodium pyruvate, and 1500 mg/L sodium bicarbonate).
(§2) The IC50 of the different drugs were calculated by resazurin viability assay. […] The cells were treated for 48 hours.

The test system of test [2] is LL2 cells. Put plainly: qRTPCR of IFN related genes in Lewis lung carcinoma (LL2) cells in vitro (Example 4). It is filed as cell-based, mouse. The procedure: as §1
RNA was extracted from snap frozen tumors using the RNEasy Microarray Tissue Mini kit from Qiagen following the manufacturer's instructions. As tumors contained Doxorubicin and powderizing them could expose personnel to harmful substances, the RNA was extracted in a closed system using the GentleMACS dissociator and M Tubes. Purity and concentration of RNA was measured using Nanodrop. RT^2 Profiler™ PCR Array. cDNA was synthesized from RNA using the RT^2 First Strand kit (Qiagen) according to the manufacturer's instructions. cDNA was mixed with RT^2 SYBR Green Mastermix (Qiagen) and loaded into RT^2 Profiler™ PCR Array Mouse Type I Interferon Response or RT^2 Profiler™ PCR Array Mouse Epithelial to Mesenchymal Transition (EMT), analyzing the expression of the genes listed in Table 17. The plates were analyzed using Light Cycler 480 (Roche) and data were analyzed using the Qiagen Data Analysis Centre and Graph Pad (Prism).
Chemotherapeutic agents commonly used to treat lung cancer patients were evaluated for effects on the IFN response. Cisplatin, navelbine and docetaxel were tested in vitro in combination with bemcentinib.
as §2

The test system of test [3] is type I IFN related genes (ISG). The test can be described thus: RT2 Profiler PCR Array Mouse Type I Interferon Response on 4T1 tumors (Example 2). It is filed as in vivo, Balb/c mice. An excerpt:
Bemcentinib was given as a loading dose for 3 days (11-13 after tumor implantation) and then as a standard dose until sacrifice.
9 mice have been excluded of the study because of the absence of tumor on day 11. On day 11 post implantation half of the cages were placed in the bemcentinib treated group and the other half in the […]. The average tumor volume when bemcentinib treatment was initiated (day 11) was 54.99 mm^3. […] The tumor volumes when bemcentinib treatment was initiated and the day of randomization are recorded in table 8. The intra tumomoral injection of doxorubicin and sting agonists was adjusted to the tumor volume.
Doxorubicin is provided in a 2 mg/ml solution. As it is technically challenging to inject 50 ul liquid into tumors measuring <100 mm^3, the total dosing volume was calculated based on the following formula: V=50 ul×(TV/120). This is done to minimize variability due to leakage during intratumoral injection. For the 1 mg/kg dose (E,F) Doxorubicin was given at a concentration of 0.5 mg/ml, which corresponds to 1 mg/kg for a 25 g mouse with a tumor of 120 mm^3, and 1 mg/kg for a 20 g mouse with a tumor of 100 mm^3. For 3 mg/kg dose (G,H), a solution of 1.5 mg/ml was used and same volumes was injected. For the 6 mg/kg dose (I,J) the commercial solution of 2 mg/ml will be used and 75 ul was injected for tumor with a volume of 120 mm^3.
The same formula as for doxorubicin was used V=50 ul×(TV/120).
RNA was extracted from […] snap frozen tumors using the RNEasy Microarray Tissue Mini kit from Qiagen following the manufacturer's instructions. As tumors contained Doxorubicin and powderizing them could expose personnel to harmful substances, the RNA was extracted in a closed system using the GentleMACS dissociator and M Tubes. Purity and concentration of RNA was measured using Nanodrop. cDNA was synthesized from RNA using the RT^2 First Strand kit (Qiagen) according to the manufacturer's instructions. cDNA was mixed with RT^2 SYBR Green Mastermix (Qiagen) and loaded into RT Profiler™ PCR Array Mouse Type I Interferon Response or RT^2 Profiler™ PCR Array Mouse Epithelial to Mesenchymal Transition (EMT), analyzing the expression of 84 genes listed in Tables 9 and 10. The plates were analyzed using Light Cycler 480 (Roche) and data were analyzed using the Qiagen Data Analysis Centre and Graph Pad (Prism).
Quiagen RT^2 software was used to analyze all the samples from different groups. To be able to generate heatmaps and graph on fold change including error bars, the data have been analyzed manually with Graph Pad (Prism) when the Quiagen RT^2 software gave significant results between the different groups. For IFN type 1 response 1 mg/kg 48, 72 h and 3 mg/kg 48 h, were analyzed manually. For EMT, 1 mg/kg 48, 72 h, 3 mg/kg 72 h. When the data have been analyzed manually, the results are presented as histograms of mRNA fold changes. For the time points and doses analyzed by the software, the results are presented as tables.
GraphPadPrism was used to generate the heat maps, graphs with mRNA fold change, and to make the statistics. Multiple TTests, paired were performed on ΔΔ Ct values.
The expression of type I IFN related genes (ISG) was assessed in tumors collected 24, 48 and 72 hours after i.t. doxorubicin treatment. 3 groups were compared per timepoint: bemcentinib (bern), doxorubicin only (dox) and doxorubicin combined with bemcentinib (doxbern), the fold changes were compared with the control groups injected with PBS, and the fold change was 1 for the control groups.

Test [4] has as its system 43 mouse cytokines. Put plainly: Plasma cytokines, ProcartaPlex Multiplex Immunoassay (Luminex) (Example 2). It is filed as in vivo, Balb/c mice. To be noted: DMXAA, 48 h post injection, treated groups.
Method: The manufacturer user guide was followed. The samples were analyzed by (MAGPIX) and the results were obtained as concentration in pg/ml of mouse plasma. At least 3 samples per group, 4 for many, were analyzed.
Test [5] relates to 4T1 mammary carcinoma cells. Put plainly: Tumor growth, 4T1 model (Example 2). On the set-up: species or system Balb/c mice. The note with it: short in vivo study, single i.t. injection day 15.
Method: Tumor growth was measured with a digital handheld caliper twice weekly from emergence of tumor and until the day of euthanasia
The subject of test [6] is 4T1 cells. The test can be described thus: qRTPCR of IFN related genes in 4T1 cells in vitro (Example 4). In kind it is cell-based, mouse. To be noted: with or without bemcentinib.
The test system of test [7] is Yumm1.7 cells. Put plainly: qRTPCR of IFN related genes in Yumm1.7 cells in vitro (Example 4). In kind it is cell-based, mouse. The note with it: Yumm1.7 cells; DMXAA treatment; 13 ISG tested.
[8] abbreviates: in the presence of bemcentinib, read-out: IC50 with bem.
The mark [9] stands for this setting: Mus musculus, LL/2, read-out: IC50 without bem.

Molecules are shown by their SMILES. Where two headings read alike, the source gives them in different places.

As to `N.N.[Cl][Pt][Cl]` [Cisplatin, cisplatin], the IC50 was determined as 4650 nM in test [1] (setting [8]) and 6190 nM in test [1] (read-out: IC50 without bem). Moreover, the “ISGs upregulated compared to control (number)” value in test [2] (cisplatin 5 uM, 48 hours) is recorded as 11.

Regarding `Cc1ccc2c(=O)c3cccc(CC(=O)O)c3oc2c1C` [DMXAA, 5,6-Dimethylxanthenone-4-acetic Acid], the “ISG significantly upregulated compared to control (number)” value in test [3] (24 hours after DMXAA i.t. treatment) is given as 8. The “ISG upregulated (number)” value in test [3] (48 hours after DMXAA injection) stood at 1; in test [7], 4. Besides, the “Cytokines with different concentration compared with controls (number)” value in test [4] came out at 8. Besides, in test [5], the Tumor growth entry is on record as “decreased tumor growth”. For the same compound, the “IFN response after DMXAA stimulation” value in test [6] is listed as “No significant changes”. For the same compound, the IC50 without bem entry in test [1] was “No effect”. The IC50 with bem entry in test [1] (in the presence of bemcentinib) is on record as “No effect”. In addition, the “ISG upregulated compared to control (number)” value in test [2] (DMXAA 25 ug/ml, 48 hours) amounted to 20.

Turning to `CC(=O)O[C@@]12CO[C@@H]1C[C@H](O)[C@@]1(C)C(=O)[C@H](O)C3=C(C)[C@@H](OC(=O)[C@H](O)[C@@H](NC(=O)OC(C)(C)C)c4ccccc4)C[C@@](O)([C@@H](OC(=O)c4ccccc4)[C@H]21)C3(C)C` [Docetaxel, docetaxel], the IC50 in test [1] (setting [9]) turned out to be 14.1 nM; in test [1] (setting [8]), 7.26 nM. For the same compound, the “ISG significantly upregulated compared to control (number)” value in test [2] (docetaxel 5 nM) amounted to 2.

Take `CCC1=C[C@@H]2CN(C1)Cc1c([nH]c3ccccc13)[C@@](C(=O)OC)(c1cc3c(cc1OC)N(C)[C@H]1[C@@](O)(C(=O)OC)[C@H](OC(C)=O)[C@]4(CC)C=CCN5CC[C@]31[C@@H]54)C2` [Navelbine, vinorelbine]: the results for the IC50 in test [1] (setting [9]) and in test [1] (setting [8]) were 10.1 nM and 0.752 nM, respectively. Besides, the “ISG upregulated (number)” value in test [2] (navelbine 1 nM, 48 hours) was “Four”.

Values taken from patent US20230372337A1, “Combination Therapy Comprising an AXL Inhibitor” (BERGENBIO ASA, priority 2020, published 2023).
